Results on one substance are retold here after paper PMC3479967 (Evidence-based Complementary and Alternative Medicine : eCAM, 2012).

For one assay, the target named is T1, UGT1A4 (Homo sapiens, UniProt P22310).
T1 construct: purchased BD Gentest Corp. (Woburn, MA, USA); host or cells: baculovirus-infected insect cells
T1 sequence (P22310 29-534): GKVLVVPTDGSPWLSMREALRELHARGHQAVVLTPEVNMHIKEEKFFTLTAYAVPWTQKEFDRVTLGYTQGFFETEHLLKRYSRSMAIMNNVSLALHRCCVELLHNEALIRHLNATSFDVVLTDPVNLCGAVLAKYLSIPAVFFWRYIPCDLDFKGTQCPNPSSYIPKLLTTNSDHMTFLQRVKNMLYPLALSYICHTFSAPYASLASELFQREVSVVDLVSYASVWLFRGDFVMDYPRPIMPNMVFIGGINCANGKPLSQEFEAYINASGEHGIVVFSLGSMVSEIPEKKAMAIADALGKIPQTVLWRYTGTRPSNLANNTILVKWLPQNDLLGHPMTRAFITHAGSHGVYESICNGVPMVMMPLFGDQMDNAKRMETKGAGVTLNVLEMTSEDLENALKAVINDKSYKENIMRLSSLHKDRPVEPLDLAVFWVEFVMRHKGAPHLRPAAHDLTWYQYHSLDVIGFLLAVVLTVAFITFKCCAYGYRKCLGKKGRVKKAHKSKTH
As to the kind of experiment: Inhibition of recombinant UGT1A4 activity (TFP glucuronidation). As to conditions: recombinant UGT1A4. Format: biochemical. On the procedure:
TFP was used as the substrate for UGT1A4. Trifluoperazine glucuronide (TFPG) formation was measured using a modification of the method reported. […] Reactions were initiated by the addition of UDPGA and incubations were performed at 37°C in a shaking water bath for 20 min. Incubations were terminated by the addition of 4% acetic acid/96% methanol (0.2 mL) and then centrifuged at 20,500 ×g for 15 min. A 40 μL aliquot of the supernatant fraction was injected into the HPLC column. […] A gradient mobile phase consisting initially of 30 : 70, mobile phase A (acetonitrile) verse mobile phase B (0.5% formic acid/water) was brought to a composition of 90 : 10 in 10 min which was held for 7 min, all at a flow rate of 1 mL/min. Column eluant was monitored by UV absorbance 256 nm. […] The negative controls are the incubation without UDPGA.

A further assay deals with T2, UGT1A7 (Homo sapiens, UniProt Q9HAW7).
T2 sequence (Q9HAW7 26-530): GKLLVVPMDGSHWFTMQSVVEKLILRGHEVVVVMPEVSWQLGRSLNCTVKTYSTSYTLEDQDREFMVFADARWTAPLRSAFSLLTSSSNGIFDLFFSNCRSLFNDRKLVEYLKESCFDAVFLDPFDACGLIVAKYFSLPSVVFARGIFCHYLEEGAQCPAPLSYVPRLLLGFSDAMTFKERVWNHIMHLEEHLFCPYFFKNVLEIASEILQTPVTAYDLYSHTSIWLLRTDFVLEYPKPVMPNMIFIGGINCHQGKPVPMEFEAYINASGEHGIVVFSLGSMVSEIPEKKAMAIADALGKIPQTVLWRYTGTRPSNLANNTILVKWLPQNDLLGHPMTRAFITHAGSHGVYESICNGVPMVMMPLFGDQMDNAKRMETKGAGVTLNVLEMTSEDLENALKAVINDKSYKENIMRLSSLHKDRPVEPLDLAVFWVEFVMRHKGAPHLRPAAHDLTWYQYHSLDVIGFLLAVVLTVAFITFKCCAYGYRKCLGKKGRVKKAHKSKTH
The assay can be described thus: Inhibition of recombinant UGT1A7 activity (4-MU glucuronidation). To be noted: recombinant UGT1A7. On the procedure: (§1) A panel of recombinant human UGT supersomes (UGT1A1, UGT1A3, UGT1A4, UGT1A6, UGT1A7, UGT1A8, UGT1A9, UGT1A10, UGT2B4, UGT2B7, UGT2B15, and UGT2B17) expressed in baculovirus-infected insect cells were purchased from BD Gentest Corp. (Woburn, MA, USA).
(§2) 4-MU, a nonselective substrate of UGTs, was used as probe substrate for all UGTs except UGT1A4. Incubations with each individual enzyme were conducted using conditions previously described. There was a 5 min preincubation step at 37°C before the reaction was started by addition of UDPGA. The incubation mixtures were then centrifuged at 20,500 ×g for 15 min to obtain the supernatant. Aliquots (20 μL) were then analyzed by HPLC. The HPLC system (SHIMADZU, Kyoto, Japan) consisted of an SCL-10A system controller, two LC-10AT pumps, a SIL-10A auto injector, and a SPD-10AVP UV detector. Chromatographic separation was achieved using a Kromasil ODS column (4.6 × 150 mm I.D., 5 μm particle size) at a flow rate of 1 mL/min and UV detection at 316 nm. The mobile phase consisted of 10 mM KH2PO4, pH 2.7 (A) and acetonitrile (B). The following gradient was applied at a flow rate of 1 mL/min: 0–4 min 80% A and 20% B, 4.1–8 min 50% A and 50% B, 8.1–12 min, 30% A and 70% B. All experiments were performed in two independent experiments in duplicate.
(§3) A typical incubation mixture contained recombinant human UGTs, 5 mM MgCl2, 5 mM UDPGA, 50 μg/mg protein alamethicin, 50 mM Tris-HCl buffer (pH 7.4), and various probe substrates of UGTs in the absence or presence of different concentrations of inhibitors. […] The final concentration of DMSO in the incubation system was 1% (v/v). […] Known UGT inhibitors were used as positive controls: diclofenac for UGT1A1, UGT1A6, UGT1A7, and UGT1A9; androsterone for UGT1A3, UGT2B7, and UGT2B15, phenylbutazone for UGT1A8 and UGT1A10, and hecogenin for UGT1A4, respectively. There is no positive control reported available for UGT2B4 and UGT2B17. The negative controls are the incubation without UDPGA. […] The final concentration of DMSO in the incubation system was 1% (v/v). […] There was a 5 min preincubation step at 37°C before the reaction was started by the addition of UDPGA. Incubation times were 120 min for UGT1A1, UGT1A10, UGT2B4, UGT2B15, and UGT2B17, 75 min for UGT1A3, and 30 min for UGT1A4, UGT1A6, UGT1A7, UGT1A8, and UGT1A9. The reactions were quenched by adding 100 μL acetonitrile and internal standard. The incubation mixtures were then centrifuged at 20,500 ×g for 15 min to obtain the supernatant. An aliquot of the supernatant was used for HPLC analysis as described above. All experiments were performed in two independent experiments in duplicate.
Inhibition data from experiments were graphically represented by Dixon plots. K i values were calculated by nonlinear regression using the equations for competitive inhibition (1), noncompetitive inhibition (2), or mixed inhibition (3), [22] (1) v =VmaxS/Km(1+(I/Ki))+S, (2) v =VmaxS/(Km+S)(1+(I/Ki)), (3) v =VmaxS/Km (1+(I/Ki))+S(1+(I/αKi)), where v is the velocity of the reaction; S and I are the substrate and inhibitor concentrations, respectively; K i is the inhibition constant describing the affinity of the inhibitor for the enzyme; K m is the substrate concentration at half of the maximum velocity (V max) of the reaction; α reflects the effect of inhibitor on the affinity of the enzyme for its substrate. The type of inhibition was determined from the enzyme inhibition models. Goodness of fit to kinetic and inhibition models was assessed from the F statistic, r ^2 values, parameter standard error estimates, and 95% confidence intervals. Kinetic constants are reported as the mean value ± standard error of the parameter estimate.

Another assay deals with T3, UGT2B7 (Homo sapiens, UniProt P16662).
T3 sequence (P16662 24-529): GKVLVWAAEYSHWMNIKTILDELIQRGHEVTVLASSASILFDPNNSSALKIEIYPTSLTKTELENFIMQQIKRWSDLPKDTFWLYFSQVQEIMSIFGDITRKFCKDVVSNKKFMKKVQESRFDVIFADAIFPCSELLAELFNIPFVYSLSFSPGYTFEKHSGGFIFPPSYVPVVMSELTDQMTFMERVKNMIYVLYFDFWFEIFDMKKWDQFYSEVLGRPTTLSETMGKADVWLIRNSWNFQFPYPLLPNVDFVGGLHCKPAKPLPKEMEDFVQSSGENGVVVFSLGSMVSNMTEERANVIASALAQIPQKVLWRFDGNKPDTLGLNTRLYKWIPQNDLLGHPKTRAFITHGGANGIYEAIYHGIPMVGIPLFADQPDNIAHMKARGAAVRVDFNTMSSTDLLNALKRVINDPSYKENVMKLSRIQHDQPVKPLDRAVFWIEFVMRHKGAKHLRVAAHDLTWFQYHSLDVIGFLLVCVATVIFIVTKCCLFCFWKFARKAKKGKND
The assay can be described thus: Inhibition of recombinant UGT2B7 activity (4-MU glucuronidation). On the procedure:
as §1, §2, §3
Inhibition data from experiments were graphically represented by Dixon plots. K i values were calculated by nonlinear regression using the equations for competitive inhibition (1), noncompetitive inhibition (2), or mixed inhibition (3), [22] […] The type of inhibition was determined from the enzyme inhibition models. Goodness of fit to kinetic and inhibition models was assessed from the F statistic, r ^2 values, parameter standard error estimates, and 95% confidence intervals. […]

Regarding Icariside II, the “Inhibition type against UGT1A4” value at UGT1A4 is on record as “competitive”. The “Inhibition type against UGT1A7” value on UGT1A7 is given as “noncompetitive”. Further, at UGT2B7 (recombinant UGT2B7), the “Inhibition type against UGT2B7” value is “mixed”. The “α of mixed inhibition against UGT2B7” value on UGT2B7 (recombinant UGT2B7, mixed inhibition model) is reported as 3.3.
